How the values were obtained:
Plasmodium berghei = system: Plasmodium berghei
Protocol: FIG. 2: In vivo measurement of parasite killing ability of Acriflavin.
This is further described hereinafter as Example 3.
The mice were divided into three groups (each group had 4 mice). For four consecutive days, group I was injected subcutaneously with 5 mg Acriflavin/kg body weight; group II received 5 mg Chloroquine/kg body weight and the group III received no drug and served as control in this experiment. Every alternate day the parasitemia from the tail blood was calculated. […] The mouse groups were kept under observation for 3 weeks after the drug treatment.

[1] = system: malaria parasite in vitro; assay: Anti-malarial property of Acriflavin vs Proflavin in vitro (parasitemia at end of first life cycle); format: cell-based, Plasmodium falciparum; conditions: 100 nM and 250 nM drug concentrations
Protocol: FIG. 1: Effect of Acriflavin on in vitro growth of 3D7 and W2 strains. Synchronized chloroquine susceptible 3D7 (A) and Chloroquine resistant W2 (B) parasites at ring stage (˜16-20 hrs) were treated with 20 nM to 100 nM of Acriflavin and parasitemia were counted at different time points (post-treatment) as indicated. (C) In each case, parasitemia were determined at the end of the first life cycle and plotted against different concentrations of Acriflavin/Proflavin. Each point/column represents the parasitemia of the mean of triplicates with standard deviations. […] Parasite growth inhibition was assessed by microscopy of giemsa stained smear at different time points as indicated.
Acriflavin is a mixture of 3,6-diamino-10-methylacridinium chloride (Trypflavin) and 3,6-diaminoacridine (Proflavin). […] After the Acriflavin treatment, the parasitemia was calculated in each case. Further, the anti-malarial property of Acriflavin vs Proflavin was also evaluated.
To determine the antimalarial activity of Acriflavin in vitro, synchronised ring stage, Chloroquine sensitive (3D7) and Chloroquine resistant (W2) P. falciparum (˜2.5% parasitemia) parasites were incubated with a range of Acriflavin concentrations (0-100 nM). After 40 hours of the Acriflavin treatment, the parasitemia was calculated in each case. […]

Q: What does the source list for `CCN(CC)CCCC(C)Nc1ccnc2cc(Cl)ccc12` (stereo not shown) [Chloroquine]?
A: parasitemia at the end of day 6 (Plasmodium berghei; 5 mg/kg body weight subcutaneously, four consecutive days, tail blood, untreated control 16%): 0.33%; survivability rate (Plasmodium berghei; 5 mg/kg s.c. for four days, 3 weeks observation after treatment, untreated control 25%): 75%

Q: How did the “anti-malarial property against malaria parasite in vitro” value [1] turn out when `Nc1ccc2cc3ccc(N)cc3nc2c1` [Proflavin, 3,6-diaminoacridine] was run?
A: ineffective

Q: How did the “drug-related effects on body weight or general condition of animals” value (Plasmodium berghei; mouse, in vivo) turn out when “mixture of 3,6-diamino-10-methylacridinium chloride (Trypflavin) and 3,6-diaminoacridine (Proflavin) [Acriflavin]” was run?
A: No drug-related effects
